Results taken from patent publication US20040106663A1, “Inhibitors of fungal invasion” (priority 2002, published 2004).
Values joined by “and” are separate entries in the source; they are usually repeats but may differ in a detail not shown here. Equal values may be shown once. Read-outs that look alike come from different tables or passages of the source. Marks after values point to notes of the source that are not given here.

Key:
[1] = tested on: logarithmic phase C. albicans (MC295) containing HWP1-lacZ; assay: microbe, parasite or virus in culture; assay type: cell-based; conditions: Candida albicans
C. albicans = C. albicans overnight growth inhibition; assay type: cell-based, Candida albicans; parameters: concentration or dose not given beside the values
C. albicans (MC303) = assay: C. albicans morphology assay (hyphae scored 1-5); conditions: scale 1-5; for C. albicans Phenotype Rating: invasion morphology phenotype, test compound at 10 μM
Experimental: In this assay, described in greater detail below, the morphology of cells was assessed and scored on a 1-5 scale. A score of 1 was assigned to non-hyphal cells, “yeast-like” cells and budding cells, and a score of 5 was assigned to cells having many, relatively long (wild-type) hyphae.
A frozen stock culture was prepared by streaking C. albicans (MC303: ura3 Δ:: imm434/ura3Δ:: imm434 arg4::hisG/arg4::hisG ade2:: URA3:.pTEF1-lacZ/ADE2 hisl::hisG/HIS1 gal1::ARG4/GAL1) cells on a YPD agar plate and grown at 30° C. for 14-18 h. An isolated colony was added to 5 mL of YPD broth and grown on a roller drum (60 rpm) for 14-18 h at 30° C. Next, 600 μL of culture were aliquotted into 1 mL of 25% glycerol, and the tubes are stored at −80° C.
Frozen MC303 C. albicans cell stock was struck for isolation of a single colony using a sterile loop on a YPD agar plate and grown at 30° C. for 14-18 h. A single colony was inoculated into 5 mL of YPD in a test tube and grown on a roller drum (60 rpm) for 2 days at 30° C. to late stationary phase (OD600˜30). For the assay, this stock was diluted to 2.5×10^5 cells/mL to make a 10× stock. Next, 10 μL of this cell stock was added to 80 μL of Inducing Media and 10 μL of 10× compound stock or DMSO in a Coming, tissue-culture treated, flat-bottom, microtiter plate. The plate was incubated at 37° C. for 24 h. Next, 10 μL of formaldehyde (37%) was added to each well and the cells were fixed for 10 min. The liquid was gently decanted from the plate and each well was examined under a microscope. Each well was photographed and observed cells are scored on a scale of 1-5. […] A 1 indicates cells are non-hyphal with only “yeast-like” cells and budding cells.
Scores of 2, 3, and 4 indicate shorter length or reduced quantity of hyphae when compared with WT (2 being very near non-hyphal and 4 being close to WT).

[2] = tested on: stationary phase C. albicans (MC295) containing HWP1-lacZ; assay: microbe, parasite or virus in culture; assay type: cell-based, Candida albicans
[3] = tested on: HepG2 human hepatoma cells; conditions: 4 h
Experimental: Mammalian Cell Toxicity Assay
To investigate the toxicity of Compound I for mammalian cells, human hepatoma cell line HepG2 were exposed to Compound I and the (LD50) was determined. Briefly, HepG2 human hepatoma cells (American Type Culture Collection, Bethesda Md.) were plated at 1×10^5 cells/well in tissue culture treated 96 well plates and incubated at 5% CO2, 37° C. for 18 h prior to initiation of the assay. The compound stocks at 100 mM in DMSO were added to DM (defined media, media without serum with added insulin, selenium and transferrin) at an initial concentration of 1000 μM and serially diluted 1 to 3 in DM in a 96 well plate. For 20 μL of a test solution, 3.5 μL sample is added to 346.5 μL media for an initial concentration of 1000 μM. These dilutions are added to the cells at final sample concentrations between 0.5 and 1000 μM (<1% DMSO). Controls included: media only (negative control) and 0.1% Triton-X (positive control). Control drugs (tamoxifen and 2-thiouracil) were also used to verify each assay. The samples were incubated at 37° C. in humidified 5% CO2 atmosphere for 4 h.
The plate was read directly on the Tecan Spectrafluor Plus reader in the fluorescent mode at excitation 530 nm and emission 595 nm. The blank was subtracted from the total fluorescence to give the net fluorescence for that well. This total was compared to the control in the absence of the compound. An LD50 (concentration at 50% of lethal dose) is calculated as the concentration that leads to a response of 50% compared to the control cells. Thus, cytotoxicity is measured as percent of inhibition of cell viability as determined by the Alamar Blue assay.

[4] = read-out: C. albicans LOG IC50, logarithmic phase growth invasion assay (converted)
[5] = Candida albicans, read-out: C. albicans STAT IC50, stationary phase growth invasion assay

Row | SMILES | IC50 [1, 4] [nM] | C. albicans Overnight Growth Inhibition (C. albicans) [%] | C. albicans Phenotype Rating (C. albicans (MC303)) | IC50 [2, 5] [nM] | AFDD Mammalian Cytotoxicity LD50 [3] [µM] | IC50 ([2]; read-out: C. albicans STAT IC50, stationary phase growth invasion assay) [nM] | mammalian cell LD50 [3] | IC50 ([1]; read-out: concentration inhibiting invasion of logarithmic phase C. albicans by 50%, logarithmic phase) [µg/mL] | average morphology score (C. albicans (MC303); 10 μM) | IC50 ([2]; Candida albicans, read-out: concentration inhibiting invasion of stationary phase C. albicans by 50%, stationary phase) [µg/mL]
1 | Cc1cc(NS(=O)(=O)c2ccc(C3CCCC3)cc2)no1 | 110 | 13.9 | 5 | 19800 | – | – | – | – | – | –
2 | CCCNc1ccc(S(=O)(=O)Nc2cc(C)on2)cc1 [drawing 266] | 360 | −17.9 | – | 10400 | >1000 | > 20000 | – | – | – | –
3 | CCCCc1ccc(S(=O)(=O)Nc2ccon2)cc1 | 1420 | 18.3 | 5 | 17400 | – | – | – | – | – | –
4 | Cc1cc(NS(=O)(=O)c2ccc(-c3ccccc3C)cc2)no1 | 56 | 4.8 | 5 | > 20000 | – | – | – | – | – | –
5 | Cc1cc(NS(=O)(=O)c2ccc(-c3cc4ccccc4s3)cc2)no1 | 1760 | −1.8 | 4 and 5 | > 20000 | – | – | – | – | – | –
6 | Cc1cc(NC(=O)Nc2ccc(S(=O)(=O)Nc3cc(C)on3)cc2)no1 | 5160 | −25.4 | 5 | > 20000 | – | – | – | – | – | –
7 | Cc1cc(NS(=O)(=O)c2ccc(-c3ccc(F)cc3F)cc2)no1 [drawing 258] | – | −3.6 | – | – | >1000 | – | – | – | – | –
8 | Cc1cc(NS(=O)(=O)c2ccc(-c3cc4ccccc4o3)cc2)no1 | 320 | 23.8 | 2* | 2610 | – | – | – | – | – | –
9 | CCCCOc1ccc(S(=O)(=O)Nc2cc(C)on2)cc1 | 42 | −6.4 | – | 11700 | >1000 | – | – | – | – | –
10 | Cc1cc(NS(=O)(=O)c2ccc(C(C)(C)C)cc2)no1 | 1200 | −107.0 | 5 | > 20000 | >1000 | – | – | – | – | –
11 | Cc1cc(NS(=O)(=O)c2ccc(-c3ccccc3)cc2)no1 | 89.3 | 19.5 | 2 and 5 | – | >1000 | – | – | – | – | –
12 | Cc1cc(NS(=O)(=O)c2ccc(CC3C4CCC(C4)C3(C)C)cc2)no1 (centres unmarked) | 18000 | −0.6 | 5 | > 20000 | – | – | – | – | – | –
13 | Cc1cc(NS(=O)(=O)c2ccc(-c3ccc(F)cc3)cc2)no1 | 294 | 12.7 | – | – | 983.2 | – | – | – | – | –
14 | CCc1ccc(-c2ccc(S(=O)(=O)Nc3cc(C)on3)cc2)cc1 | 115 | −14.4 | 5 | > 20000 | – | – | – | – | – | –
15 | CCCCc1ccc(S(=O)(=O)Nc2cc(C)on2)cc1 [drawing 232] | 6.03 | 19.4 | – | 898 | >1000 | – | – | – | – | –
16 | CCCCCc1ccc(S(=O)(=O)Nc2cc(C)on2)cc1 | 9.28 | −49.4 | 4 | 1410 | – | – | – | – | – | –
17 | Cc1cc(NS(=O)(=O)c2ccc(-c3ccc(F)cc3F)s2)no1 | 3360 | −0.6 | 5 | > 20000 | – | – | – | – | – | –
18 | Cc1cc(NS(=O)(=O)c2ccc(-c3cccc(Cl)c3)cc2)no1 | 110 | 7.7 | 5 | > 20000 | – | – | – | – | – | –
19 | CCCSCc1ccc(S(=O)(=O)Nc2cc(C)on2)cc1 | 656 | −21.3 | 5 | > 20000 | – | – | – | – | – | –
20 | Cc1cc(NS(=O)(=O)c2ccc(CC3CCCC3)cc2)no1 | 79.2 | 0.9 | 2 and 4 and 5 | 4470 | 660.9 | – | – | – | – | –
21 | Cc1cc(NS(=O)(=O)c2ccc(-c3ccc4c(c3)OCO4)cc2)no1 | 674 | – | – | > 20000 | >1000 | – | – | – | – | –
22 | Cc1cc(NS(=O)(=O)c2ccc(-c3ccc(F)cc3)cc2C)no1 | 1470 | 1.3 | 4 | > 20000 | 648.5 | – | – | – | – | –

Row | SMILES | IC50 [1, 4] [nM] | C. albicans Overnight Growth Inhibition (C. albicans) [%] | C. albicans Phenotype Rating (C. albicans (MC303)) | IC50 [2, 5] [nM] | AFDD Mammalian Cytotoxicity LD50 [3] [µM] | IC50 ([2]; read-out: C. albicans STAT IC50, stationary phase growth invasion assay) [nM] | mammalian cell LD50 [3] | IC50 ([1]; read-out: concentration inhibiting invasion of logarithmic phase C. albicans by 50%, logarithmic phase) [µg/mL] | average morphology score (C. albicans (MC303); 10 μM) | IC50 ([2]; Candida albicans, read-out: concentration inhibiting invasion of stationary phase C. albicans by 50%, stationary phase) [µg/mL]
23 | Cc1ccc(-c2ccc(S(=O)(=O)Nc3cc(C)on3)cc2)cc1 | 41 | 12.3 | – | > 20000 | >1000 | – | – | – | – | –
24 | Cc1cc(NS(=O)(=O)c2ccc(-c3ccc(F)c(F)c3)cc2)no1 | 1100 | 8.8 | 5 | > 20000 | – | – | – | – | – | –
25 | Cc1cc(NS(=O)(=O)c2ccc(-c3sccc3C)cc2)no1 | 320 | 11.5 | 5 | > 20000 | – | – | – | – | – | –
26 | CCCCc1cc(F)c(S(=O)(=O)Nc2cc(C)on2)cc1F | 87 | −14.5 | 5 | > 20000 | – | – | – | – | – | –
27 | CCCCC(F)(F)c1ccc(S(=O)(=O)Nc2cc(C)on2)cc1 | 2020 | −1.6 | 5 | > 20000 | – | – | – | – | – | –
28 | Cc1cc(NS(=O)(=O)c2ccc(-c3cc(Cl)cc(Cl)c3)cc2)no1 | 1480 | −3.1 | 5 | > 20000 | – | – | – | – | – | –
29 | Cc1cc(NS(=O)(=O)c2ccc(N3CCCC3)cc2)no1 | 91 | 4.4 | 4 and 5 | 3730 | – | – | – | – | – | –
30 | Cc1cc(NS(=O)(=O)c2ccc(-c3ccc(F)c(C)c3)cc2)no1 | 116 | 2.6 | – | – | 601.4 | – | – | – | – | –
31 | Cc1cc(NS(=O)(=O)c2ccc(-c3cccc(Cl)c3Cl)cc2)no1 | 3010 | −0.3 | 5 | > 20000 | – | – | – | – | – | –
32 | Cc1cc(NS(=O)(=O)c2ccc(CCCCCCCCCCO)cc2)no1 | 17300 | 71.0 | 5 | > 20000 | – | – | – | – | – | –
33 | CCCN(CCC)c1ccc(S(=O)(=O)Nc2cc(C)on2)cc1 | 2790 | −2.8 | 5 | > 20000 | – | – | – | – | – | –
34 | Cc1cc(NS(=O)(=O)c2ccc3ccccc3c2)no1 | 2260 | −14.7 | 5 | > 20000 | – | – | – | – | – | –
35 | Cc1cc(NS(=O)(=O)c2ccc(-c3nccs3)cc2)no1 | 2800 | 32.7 | 3 and 5 | > 20000 | – | – | – | – | – | –
36 | Cc1cc(NS(=O)(=O)c2ccc(-c3ccc(F)c(Cl)c3)cc2)no1 | 192 | 18.6 | 5 | > 20000 | – | – | – | – | – | –
37 | Cc1cc(NS(=O)(=O)c2ccc(OCC3CC3)cc2)no1 | 51 | −7.3 | 5 | 11500 | – | – | – | – | – | –
38 | CCCCc1ccc(S(=O)(=O)Nc2cc(C)on2)cc1 [Compound I] | – | – | – | – | – | – | greater than 1000 μM | 0.0049 | 1 | 0.85
39 | Cc1cc(NS(=O)(=O)c2ccc(Oc3ccccc3)cc2)no1 | 5210 | 4.4 | 5 | > 20000 | – | – | – | – | – | –
40 | Cc1cc(NS(=O)(=O)c2ccc(-c3ccc(C)s3)cc2)no1 | 50 | 22.4 | – | 4900 | – | – | – | – | – | –
41 | Cc1cc(NS(=O)(=O)c2ccc(-n3cccn3)cc2)no1 | 2100 | −13.3 | 5 | > 20000 | – | – | – | – | – | –
42 | Cc1cc(NS(=O)(=O)c2ccc(OC(C)C)cc2)no1 | 3600 | 0.8 | 5 | > 20000 | – | – | – | – | – | –
43 | Cc1cc(NS(=O)(=O)c2ccc(-c3ccccc3F)cc2)no1 | 350 | −4.3 | 5 | > 20000 | – | – | – | – | – | –
